According to US20240325303A1, “KETOROLAC LIQUID COMPOSITION, PREPARATION METHOD THEREFOR, AND APPLICATION THEREOF” (SHANGHAI AURORA BIOTECHNOLOGY CO., LTD., priority 2021, published 2024):

Key:
human plasma protein = assay: in vitro
Description: Samples at the dosing and receiving ends and at the preparation instant (0 h) were assayed by LC-MS/MS, and the plasma protein binding (PPB) rates and the recovery rates were calculated based on the assay results. The plasma samples and PBS samples prepared from the test samples and the commercially available controls were incubated at 37° C. for 6 h with oscillation (100 rpm) and then assayed for stability.

[1] = standard animal models for analgesic effect; cited from earlier work
[2] = multiple tests; cited from earlier work
[3] = compared with morphine; cited from earlier work

| Structure (SMILES) | recovery at 6 h, 300 ng/mL (human plasma protein) [%] | analgesic activity compared with indomethacin, naproxen, phenylbutazone [1] | analgesic activity relative to aspirin [1] [times] | anti-inflammatory activity compared with indomethacin, naproxen, phenylbutazone [2] | relieving postsurgical pain [3] |
| --- | --- | --- | --- | --- | --- |
| CC(=O)CC(c1ccccc1)c1c(O)c2ccccc2oc1=O (centres unmarked) [Warfarin] | 96.2 | – | – | – | – |
| O=C(c1ccccc1)c1ccc2n1CCC2C(=O)O (centres unmarked) [Ketorolac tromethamine] | – | stronger than that of indomethacin and naproxen, and equivalent to or better than that of phenylbutazone | 800 | equivalent to or stronger than that of indomethacin, stronger than that of naproxen, and significantly better than that of phenylbutazone | superior to morphine |
